Measured values reported in patent publication US20140162980A1, “NOVEL MICROBIOCIDAL DIOXIME ETHER DERIVATIVES” (SYNGENTA CROP PROTECTION LLC, priority 2010, published 2014).

Tested on: Puccinia recondita f. sp. tritici
Test: Puccinia recondita f. sp. tritici / wheat / leaf disc preventative (brown rust)
Assay type: in vivo
Conditions: foliar, wheat leaf segments cv Kanzler, inoculated 1 day after application, assessed 7-9 days after application, read-out: control of Puccinia recondita f. sp. tritici, preventative (percent disease control compared to untreated)
Protocol: Puccinia Recondita f. Sp. Tritici/Wheat/Leaf Disc Preventative (Brown Rust): Wheat leaf segments cultivated variety (cv) Kanzler were placed on agar in 24-well plates and sprayed with formulated test compound diluted in water at an application rate of 200 ppm. The leaf disks were inoculated with a spore suspension of the fungus 1 day after application. The inoculated leaf segments were incubated at 19° C. and 75% relative humidity under a light regime of 12/12 h (light/dark) in a climate cabinet and the activity of a compound was assessed as percent disease control compared to untreated when an appropriate level of disease damage appears in untreated check leaf segments (7-9 days after application).

Row | SMILES | pest or weed control at 200 ppm [%]
1 | Cc1ccc2c(n1)/C(=N/OCCCO/N=C1\CCCc3c1nc1ccccc1c3C)CCC2 [P.37] | ≥ 80
2 | c1c2c(nc3c1CCC/C3=N\OCCCO/N=C1\CCCc3cc4c(nc31)CCCC4)CCCC2 [P.51] | ≥ 80
3 | CCC(CO/N=C1\CCCc2ccc(C)nc21)CO/N=C1\CCCc2ccc(C)nc21 [P.10] | ≥ 80
4 | Cc1ccc2c(n1)/C(=N/OCC(C)(C)CO/N=C1\CCCc3c(CF)cc(C)nc31)CCC2 [P.44] | ≥ 80

Tested on: Blumeria graminis f. sp. tritici (Erysiphe graminis f. sp. tritici)
Test: Blumeria graminis f. sp. tritici / wheat / leaf disc preventative (powdery mildew on wheat)
Assay type: in vivo
Conditions: foliar, wheat leaf segments cv. Kanzler, inoculated 1 day after application, assessed 6-8 days after application, read-out: control of Blumeria graminis (percent disease control compared to untreated)
Protocol: Blumeria Graminis f. Sp. Tritici (Erysiphe Graminis f. Sp. Tritici)/Wheat/Leaf Disc Preventative (Powdery Mildew on Wheat):
Wheat leaf segments cv. Kanzler were placed on agar in a 24-well plate and sprayed with the formulated test compound diluted in water at an application rate of 200 ppm. The leaf disks were inoculated by shaking powdery mildew infected plants above the test plates 1 day after application. The inoculated leaf disks were incubated at 20° C. and 60% relative humidity under a light regime of 24 h darkness followed by 12 h/12 h (dark/light) in a climate chamber and the activity of a compound was assessed as percent disease control compared to untreated when an appropriate level of disease damage appears on untreated check leaf segments (6-8 days after application). The following compounds gave at least 80% control of Blumeria graminis: […]

Row | SMILES | pest or weed control at 200 ppm [%]
5 | Cc1ccc2c(n1)/C(=N/OCCCO/N=C1\CCCc3c1nc1ccccc1c3C)CCC2 [P.37] | ≥ 80
6 | c1c2c(nc3c1CCC/C3=N\OCCCO/N=C1\CCCc3cc4c(nc31)CCCC4)CCCC2 [P.51] | ≥ 80
7 | CCC(CO/N=C1\CCCc2ccc(C)nc21)CO/N=C1\CCCc2ccc(C)nc21 [P.10] | ≥ 80
8 | Cc1ccc2c(n1)/C(=N/OCC(C)(C)CO/N=C1\CCCc3c(CF)cc(C)nc31)CCC2 [P.44] | ≥ 80

Tested on: Pyrenophora teres
Test: Pyrenophora teres / barley / leaf disc preventative (net blotch)
Assay type: in vivo
Conditions: foliar, barley leaf segments cv Hasso, inoculated two days after application, assessed 5-7 days after application, read-out: control of Pyrenophora teres (disease control compared to untreated)
Protocol: Pyrenophora Teres/Barley/Leaf Disc Preventative (Net Blotch): Barley leaf segments cv Hasso are placed on agar in a 24-well plate and sprayed with formulated test compound diluted in water at an application rate of 200 ppm. The leaf segments are inoculated with a spore suspension of the fungus two days after application of the test solution. The inoculated leaf segments are incubated at 20° C. and 65% relative humidity under a light regime of 12/12 h (light/dark) in a climate cabinet and the activity of a compound is assessed as disease control compared to untreated when an appropriate level of disease damage appears in untreated check leaf segments (5-7 days after application).

Row | SMILES | pest or weed control at 200 ppm [%]
9 | Cc1ccc2c(n1)/C(=N/OCCCO/N=C1\CCCc3c1nc1ccccc1c3C)CCC2 [P.37] | ≥ 80
10 | c1c2c(nc3c1CCC/C3=N\OCCCO/N=C1\CCCc3cc4c(nc31)CCCC4)CCCC2 [P.51] | ≥ 80
11 | CCC(CO/N=C1\CCCc2ccc(C)nc21)CO/N=C1\CCCc2ccc(C)nc21 [P.10] | ≥ 80
12 | Cc1ccc2c(n1)/C(=N/OCC(C)(C)CO/N=C1\CCCc3c(CF)cc(C)nc31)CCC2 [P.44] | ≥ 80

Tested on: Thanatephorus cucumeris (Rhizoctonia solani)
Test: Thanatephorus cucumeris (Rhizoctonia solani) / liquid culture (foot rot, damping-off)
Assay type: cell-based
Conditions: PDB potato dextrose broth, 24° C., 3-4 days after application, read-out: control of Thanatephorus cucumeris (inhibition of growth, photometrically)
Protocol: Thanatephorus Cucumeris (Rhizoctonia solani)/Liquid Culture (Foot Rot, Damping-Off): Mycelia fragments of a newly grown liquid culture of the fungus are directly mixed into nutrient broth (PDB potato dextrose broth). After placing a DMSO solution of the test compounds into a 96-well microtiter plate at an application rate 200 ppm, the nutrient broth containing the fungal material was added. The test plates were incubated at 24° C. and the inhibition of growth was determined photometrically 3-4 days after application.

Row | SMILES | inhibition at 200 ppm [%]
13 | Cc1ccc2c(n1)/C(=N/OCCCO/N=C1\CCCc3c1nc1ccccc1c3C)CCC2 [P.37] | ≥ 80
14 | c1c2c(nc3c1CCC/C3=N\OCCCO/N=C1\CCCc3cc4c(nc31)CCCC4)CCCC2 [P.51] | ≥ 80

Tested on: Pythium ultimum
Test: Pythium ultimum / liquid culture (seedling damping off)
Assay type: cell-based
Conditions: Globisporangium ultimum, PDB potato dextrose broth, 24° C., 2-3 days after application, read-out: control of Pythium ultimum (inhibition of growth, photometrically)
Protocol: Pythium Ultimum/Liquid Culture (Seedling Damping Off): Mycelia fragments and oospores of a newly grown liquid culture of the fungus were directly mixed into nutrient broth (PDB potato dextrose broth). After placing a DMSO solution of test compound into a 96 well microtiter plate at an application rate 200 ppm, the nutrient broth containing the fungal mycelia/spore mixture was added. The test plates were incubated at 24° C. and the inhibition of growth was determined photometrically 2-3 days after application.

Row | SMILES | inhibition at 200 ppm [%]
15 | Cc1ccc2c(n1)/C(=N/OCCCO/N=C1\CCCc3c1nc1ccccc1c3C)CCC2 [P.37] | ≥ 80
16 | c1c2c(nc3c1CCC/C3=N\OCCCO/N=C1\CCCc3cc4c(nc31)CCCC4)CCCC2 [P.51] | ≥ 80
17 | CCC(CO/N=C1\CCCc2ccc(C)nc21)CO/N=C1\CCCc2ccc(C)nc21 [P.10] | ≥ 80
18 | Cc1ccc2c(n1)/C(=N/OCC(C)(C)CO/N=C1\CCCc3c(CF)cc(C)nc31)CCC2 [P.44] | ≥ 80

Tested on: Phaeosphaeria nodorum (Septoria nodorum)
Test: Phaeosphaeria nodorum (Septoria nodorum) / wheat / leaf disc preventative (glume blotch)
Assay type: in vivo
Conditions: Parastagonospora nodorum, foliar, wheat leaf segments cv Kanzler, inoculated 2 days after application, assessed 5-7 days after application, read-out: control of Phaeosphaeria nodorum (percent disease control compared to untreated)
Protocol: Phaeosphaeria Nodorum (Septoria nodorum)/Wheat/Leaf Disc Preventative (Glume Blotch): Wheat leaf segments cv Kanzler were placed on agar in a 24-well plate and sprayed with formulated test compound diluted in water at an application rate of 200 ppm. The leaf disks are inoculated with a spore suspension of the fungus 2 days after application. The inoculated test leaf disks are incubated at 20° C. and 75% relative humidity under a light regime of 12/12 h (light/dark) in a climate cabinet and the activity of a compound is assessed as percent disease control compared to untreated when an appropriate level of disease damage appears in untreated check leaf disks (5-7 days after application).

Row | SMILES | pest or weed control at 200 ppm [%]
19 | Cc1ccc2c(n1)/C(=N/OCCCO/N=C1\CCCc3c1nc1ccccc1c3C)CCC2 [P.37] | ≥ 80
20 | c1c2c(nc3c1CCC/C3=N\OCCCO/N=C1\CCCc3cc4c(nc31)CCCC4)CCCC2 [P.51] | ≥ 80
21 | CCC(CO/N=C1\CCCc2ccc(C)nc21)CO/N=C1\CCCc2ccc(C)nc21 [P.10] | ≥ 80
22 | Cc1ccc2c(n1)/C(=N/OCC(C)(C)CO/N=C1\CCCc3c(CF)cc(C)nc31)CCC2 [P.44] | ≥ 80

Tested on: Alternaria solani
Test: Alternaria solani / tomato / leaf disc (early blight)
Assay type: in vivo
Conditions: foliar, tomato leaf disks cv. Baby, inoculated 2 days after application, assessed 5-7 days after application, read-out: control of Alternaria solani (percent disease control compared to untreated)
Protocol: Alternaria Solani/Tomato/Leaf Disc (Early Blight): Tomato leaf disks cv. Baby are placed on agar in multiwell plates (24-well format) and sprayed with the formulated test compound diluted in water at an application rate of 200 ppm. The leaf disks are inoculated with a spore suspension of the fungus 2 days after application. The inoculated leaf disks are incubated at 23° C./21° C.

Row | SMILES | pest or weed control at 200 ppm [%]
23 | Cc1ccc2c(n1)/C(=N/OCCCO/N=C1\CCCc3c1nc1ccccc1c3C)CCC2 [P.37] | ≥ 80
24 | CCC(CO/N=C1\CCCc2ccc(C)nc21)CO/N=C1\CCCc2ccc(C)nc21 [P.10] | ≥ 80

Tested on: Magnaporthe grisea (Pyricularia oryzae)
Test: whole plant or invertebrate
Assay type: in vivo
Conditions: foliar, read-out: control of Magnaporthe grisea (percent disease control compared to untreated)

Row | SMILES | pest or weed control at 200 ppm [%]
25 | Cc1ccc2c(n1)/C(=N/OCCCO/N=C1\CCCc3c1nc1ccccc1c3C)CCC2 [P.37] | ≥ 80
26 | c1c2c(nc3c1CCC/C3=N\OCCCO/N=C1\CCCc3cc4c(nc31)CCCC4)CCCC2 [P.51] | ≥ 80
27 | Cc1ccc2c(n1)/C(=N/OCC(C)(C)CO/N=C1\CCCc3c(CF)cc(C)nc31)CCC2 [P.44] | ≥ 80

Tested on: Puccinia recondita f. sp. tritici
Test: Puccinia recondita f. sp. tritici / wheat / leaf disc curative (brown rust)
Assay type: in vivo
Conditions: foliar, 200 ppm applied 1 day after inoculation, wheat leaf segments cv Kanzler, assessed 6-8 days after application, read-out: control of Puccinia recondita f. sp. tritici, curative (percent disease control compared to untreated)
Protocol: Puccinia Recondita f. Sp. Tritici/Wheat/Leaf Disc Curative (Brown Rust): Wheat leaf segments cv Kanzler were placed on agar in 24-well plates. The leaf segments were inoculated with a spore suspension of the fungus. The plates were stored in darkness at 19° C. and 75% relative humidity. The formulated test compound diluted in water was applied at an application rate of 200 ppm 1 day after inoculation.

Row | SMILES | pest or weed control at 200 ppm [%]
28 | Cc1ccc2c(n1)/C(=N/OCCCO/N=C1\CCCc3c1nc1ccccc1c3C)CCC2 [P.37] | ≥ 80
29 | CCC(CO/N=C1\CCCc2ccc(C)nc21)CO/N=C1\CCCc2ccc(C)nc21 [P.10] | ≥ 80
30 | Cc1ccc2c(n1)/C(=N/OCC(C)(C)CO/N=C1\CCCc3c(CF)cc(C)nc31)CCC2 [P.44] | ≥ 80

Tested on: Sclerotinia sclerotiorum
Test: Sclerotinia sclerotiorum / liquid culture (cottony rot)
Assay type: cell-based
Conditions: PDB potato dextrose broth, 24° C., 3-4 days after application, read-out: control of Sclerotinia sclerotiorum (inhibition of growth, photometrically)
Protocol: Sclerotinia Sclerotiorum/Liquid Culture (Cottony Rot) Mycelia fragments of a newly grown liquid culture of the fungus are directly mixed into nutrient broth (PDB potato dextrose broth). After placing a (DMSO) solution of test compound into a microtiter plate at an application rate 200 ppm (96-well format) the nutrient broth containing the fungal material is added. The test plates are incubated at 24° C. and the inhibition of growth is determined photometrically 3-4 days after application.

Row | SMILES | inhibition at 200 ppm [%]
31 | Cc1ccc2c(n1)/C(=N/OCCCO/N=C1\CCCc3c1nc1ccccc1c3C)CCC2 [P.37] | ≥ 80
32 | c1c2c(nc3c1CCC/C3=N\OCCCO/N=C1\CCCc3cc4c(nc31)CCCC4)CCCC2 [P.51] | ≥ 80
33 | Cc1ccc2c(n1)/C(=N/OCC(C)(C)CO/N=C1\CCCc3c(CF)cc(C)nc31)CCC2 [P.44] | ≥ 80

Tested on: Botryotinia fuckeliana (Botrytis cinerea)
Test: Botryotinia fuckeliana (Botrytis cinerea) / liquid culture (gray mould)
Assay type: cell-based
Conditions: Vogels broth, 24° C., 3-4 days after application, read-out: control of Botryotinia fuckeliana (inhibition of growth, photometrically)
Protocol: Botryotinia Fuckeliana (Botrytis cinerea)/Liquid Culture (Gray Mould): Conidia of the fungus from cryogenic storage were directly mixed into nutrient broth (Vogels broth). After placing a DMSO solution of test compound into a 96-well microtiter plate at an application rate 200 ppm, the nutrient broth containing the fungal spores was added. The test plates were incubated at 24° C. and the inhibition of growth was determined photometrically 3-4 days after application.

Row | SMILES | inhibition at 200 ppm [%]
34 | Cc1ccc2c(n1)/C(=N/OCCCO/N=C1\CCCc3c1nc1ccccc1c3C)CCC2 [P.37] | ≥ 80
35 | c1c2c(nc3c1CCC/C3=N\OCCCO/N=C1\CCCc3cc4c(nc31)CCCC4)CCCC2 [P.51] | ≥ 80
36 | CCC(CO/N=C1\CCCc2ccc(C)nc21)CO/N=C1\CCCc2ccc(C)nc21 [P.10] | ≥ 80
37 | Cc1ccc2c(n1)/C(=N/OCC(C)(C)CO/N=C1\CCCc3c(CF)cc(C)nc31)CCC2 [P.44] | ≥ 80

Tested on: Phytophthora infestans
Test: whole plant or invertebrate
Assay type: in vivo
Conditions: in Solanum lycopersicum, foliar, read-out: control of Phytophthora infestans (percent disease control compared to untreated)

Row | SMILES | pest or weed control at 200 ppm [%]
38 | c1c2c(nc3c1CCC/C3=N\OCCCO/N=C1\CCCc3cc4c(nc31)CCCC4)CCCC2 [P.51] | ≥ 80
39 | CCC(CO/N=C1\CCCc2ccc(C)nc21)CO/N=C1\CCCc2ccc(C)nc21 [P.10] | ≥ 80

Tested on: Plasmopara viticola
Test: whole plant or invertebrate
Assay type: in vivo
Conditions: foliar, read-out: control of Plasmopara viticola (percent disease control compared to untreated)

Row | SMILES | pest or weed control at 200 ppm [%]
40 | Cc1ccc2c(n1)/C(=N/OCCCO/N=C1\CCCc3c1nc1ccccc1c3C)CCC2 [P.37] | ≥ 80
41 | CCC(CO/N=C1\CCCc2ccc(C)nc21)CO/N=C1\CCCc2ccc(C)nc21 [P.10] | ≥ 80
